In US9278915B2, “Agonists of GPR40” (CONNEXIOS LIFE SCIENCES PVT LTD, priority 2010, dated 2016) one finds EC50 data, which are given here for 24 molecules.

pEC50: −log10 of the molar value.

In this assay the target is T1, hGPR40 (Homo sapiens, UniProt O14842).
T1 construct: expressed in transfected cells
T1 sequence (O14842 whole entry): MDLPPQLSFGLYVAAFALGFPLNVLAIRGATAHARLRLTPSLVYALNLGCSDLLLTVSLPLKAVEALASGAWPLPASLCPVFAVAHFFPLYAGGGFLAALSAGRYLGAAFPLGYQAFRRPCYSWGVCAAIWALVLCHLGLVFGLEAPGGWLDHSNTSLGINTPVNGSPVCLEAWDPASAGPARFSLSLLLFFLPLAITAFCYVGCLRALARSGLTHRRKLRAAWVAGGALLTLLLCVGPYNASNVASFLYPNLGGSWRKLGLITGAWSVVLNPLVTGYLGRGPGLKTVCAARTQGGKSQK
The experiment in a line: Calcium flux assay to detect GPR40 activation. Format: cell-based. The following applies: CHO-K cells stably expressing hGPR40; Fluo-4 NW; read for 4 min at 5 s intervals. As to the method: Biological Activity Calium Flux Assay to Detect GPR40 Activation: CHO-K cells stably expressing hGPR40 were selected in a media containing Neomycin/G418. The cells were plated at a concentration of 20,000 cells per well in black 96-well clear bottom tissue culture treated plates. The cells were cultured for 24 h at 37° C. in a humidified 5% CO2 air environment to allow for protein expression. The next day, after removal of media from wells, Fluo-4 NW (Invitrogen) is added at 100 ul/well and the cells were incubated for 30 min at 37° C. and for a further 30 min at RT. All test compounds were diluted to appropriate concentrations in HEPES buffer. Compounds were added to the cells and the wells were read in the BioTEK synergy reader and readings were taken for 4 min with an interval of 5 s.
A general note: Calcium assays in cells follow changes in intracellular calcium, usually with a dye or a luminescent sensor.
The pEC50 is the negative decadic logarithm of the EC50, by convention in mol/L. Take `N#CC(CC(=O)O)c1ccc(OCc2ccc(OC/C(=N\Oc3ccccc3)c3ccccc3)cc2)cc1` (stereo not drawn) [Compound 107, 3-Cyano-3-{4-[(4-{[(2E,2Z)-2-(phenoxyimino)-2-phenylethyl]oxy}benzyl)oxy]phenyl}propanoic acid]: the pEC50 is 7.00 to 8.00.
For `CO/N=C(\COc1ccc(COc2ccc([C@H]3C[C@H]3C(=O)O)cc2)cc1)c1ccc(C#N)cc1` [Compound 63, (1R,2S)-2-{4-[(4-{[(2Z)-2-(4-Cyanophenyl)-2-(methoxyimino)ethyl]oxy}benzyl)oxy]phenyl}cyclopropanecarboxylic acid], the negative-log EC50 (pEC50) is less than 7.00.
Consider `CO/N=C(\c1ccccc1)c1cccc(COc2ccc(CC(=O)O)cc2)c1` [Compound 19, [4-({3-[(E,Z)-(Methoxyimino)(phenyl)methyl]benzyl}oxy)phenyl]acetic acid], for which the negative-log EC50 (pEC50) is less than 7.00.
To `CO/N=C(\COc1ccc(COc2ccc(CCC(=O)O)c(F)c2)cc1)c1ccccc1` [Compound 36, 3-{2-Fluoro-4-[(4-{[(2Z)-2-(methoxyimino)-2-phenylethyl]oxy}benzyl)oxy]phenyl}propanoic acid] belongs greater than 8.00; to `CO/N=C(\COc1ccc(-c2ccc(CCC(=O)O)cc2)cc1)c1ccccc1` [Compound 115, 3-(4′-{[(2Z)-2-(Methoxyimino)-2-phenylethyl]oxy}biphenyl-4-yl)propanoic acid], less than 7.00.
As for `CON=C(COc1ccc(COc2ccc(C(C)(C)CC(=O)O)cc2)cc1)c1ccccc1` (mixture of isomers) [Compound 61, 3-{4-[(4-{[(2E,2Z)-2-(Methoxyimino)-2-phenylethyl]oxy}benzyl)oxy]phenyl}-3-methylbutanoic acid], the negative logarithm of the EC50 (pEC50) was less than 7.00.
As to `CO/N=C(\COc1ccc(COc2ccc(C3CC3C(=O)O)cc2)cc1)c1ccc(C#N)cc1` (stereo not drawn) [Compound 51, Sodium 2-{4-[(4-{[(2Z)-2-(4-cyanophenyl)-2-(methoxyimino)ethyl]oxy}benzyl)oxy]phenyl}cyclopropanecarboxylate], the negative logarithm of the EC50 (pEC50) was greater than 8.00.
For `CO/N=C(\COc1ccc(COc2ccc(-c3c(C)noc3CC(=O)O)cc2)cc1)c1ccccc1` [Compound 69, (4-{4-[(4-{[(2Z)-2-(Methoxyimino)-2-phenylethyl]oxy}benzyl)oxy]phenyl}-3-methyl-1,2-oxazol-5-yl)acetic acid], the pEC50 was less than 7.00.
To `CO/N=C(\COc1ccc(COc2ccc(C(C#N)CC(=O)O)c(OC)c2)cc1)c1ccccc1` (stereo not drawn) [Compound 83, 3-Cyano-3-{2-methoxy-4-[(4-{[(2Z)-2-(methoxyimino)-2-phenylethyl]oxy}benzyl)oxy]phenyl}propanoic acid] belongs 7.00 to 8.00.
On to `CO/N=C(\COc1ccc(COc2ccc(CCC(=O)O)c(OC)c2)cc1)c1ccc(C#N)cc1` [Compound 43, 3-{4-[(4-{[(2Z)-2-(4-Cyanophenyl)-2-(methoxyimino)ethyl]oxy}benzyl)oxy]-2-methoxyphenyl}propanoic acid], for which the pEC50 was less than 7.00.
Consider `CN(C)CCO/N=C(/c1ccccc1)c1cccc(COc2ccc(CCC(=O)O)cc2)c1` [Compound 11, 3-[4-({3-[(E,Z)-{[2-(Dimethylamino)ethoxy]imino}(phenyl)methyl]benzyl}oxy)phenyl]propanoic acid], for which the negative-log EC50 (pEC50) was less than 7.00.
Regarding `CO/N=C(/COc1ccc(COc2ccc(C(CC(=O)O)c3ccon3)cc2)cc1)c1cccc(C)c1` (racemic) [Compound 24, 3-{4-[(4-{[(2E,2Z)-2-(Methoxyimino)-2-(3-methylphenyl)ethyl]oxy}benzyl)oxy]phenyl}-3-(1,2-oxazol-3-yl)propanoic acid], the pEC50 was 7.00 to 8.00.
As to `CO/N=C(\COc1ccc(COc2ccc(C3CC3C(=O)O)cc2)cc1)c1ccc(C#N)cc1` (single isomer, unassigned) [Compound 80, Sodium 2-{4-[(4-{[(2Z)-2-(4-cyanophenyl)-2-(methoxyimino)ethyl]oxy}benzyl)oxy]phenyl}cyclopropanecarboxylate], the negative-log EC50 (pEC50) was greater than 8.00.
For the molecule `CO/N=C(\COc1ccc(COc2ccc(C(C#N)CC(=O)O)cc2)cc1)c1ccccc1` (single isomer, unassigned; (-)) [Compound 75, (−)-3-Cyano-3-{4-[(4-{[(2Z)-2-(methoxyimino)-2-phenylethyl]oxy}benzyl)oxy]phenyl}propanoic acid], the pEC50 is greater than 8.00.
`CO/N=C(\COc1ccc(COc2ccc(C(C#N)CC(=O)O)cc2)cc1)C1CC1` (stereo not drawn) [Compound 105, 3-Cyano-3-{4-[(4-{[(2Z)-2-cyclopropyl-2-(methoxyimino)ethyl]oxy}benzyl)oxy]phenyl}propanoic acid]: the pEC50 is less than 7.00.
As for `CO/N=C(\COc1ccc(COc2ccc(CCC(=O)O)cc2OC)cc1)c1ccccc1` [Compound 94, 3-{3-Methoxy-4-[(4-{[(2Z)-2-(methoxyimino)-2-phenylethyl]oxy}benzyl)oxy]phenyl}propanoic acid], the figure is less than 7.00; as for `CO/N=C(/COc1ccc(COc2ccc(C(C#N)CC(=O)O)cc2)cc1)c1ccccc1` (stereo not drawn) [Compound 53, Sodium 3-cyano-3-{4-[(4-{[(2E)-2-(methoxyimino)-2-phenylethyl]oxy}benzyl)oxy]phenyl}propanoate], 7.00 to 8.00.
Take `CO/N=C(/COc1ccc(COc2ccc(C(C#N)CC(=O)O)cc2)c(F)c1)c1ccccc1` (racemic) [Compound 23, 3-Cyano-3-{4-[(2-fluoro-4-{[(2E,2Z)-2-(methoxyimino)-2-phenylethyl]oxy}benzyl)oxy]phenyl}propanoic acid]: the pEC50 is greater than 8.00.
As for `CO/N=C(\COc1ccc(COc2ccc(C(C#N)CC(=O)O)cc2)cc1)c1ccccc1` (stereo not drawn) [Compound 18, Sodium 3-cyano-3-{4-[(4-{[(2Z)-2-(methoxyimino)-2-phenylethyl]oxy}benzyl)oxy]phenyl}propanoate], the figure is greater than 8.00; as for `CO/N=C(\COc1ccc(COc2ccc(CCC(N)=O)cc2)cc1)c1ccccc1` [Compound 120, 3-{4-[(4-{[(2Z)-2-(Methoxyimino)-2-phenylethyl]oxy}benzyl)oxy]phenyl}propanamide], less than 7.00.
For the molecule `CO/N=C(\COc1ccc(COc2ccc(C(C#N)CC(=O)O)cc2)cc1)c1ccc2c(c1)CCC2` (stereo not drawn) [Compound 103, 3-Cyano-3-{4-[(4-{[(2Z)-2-(2,3-dihydro-1H-inden-5-yl)-2-(methoxyimino)ethyl]oxy}benzyl)oxy]phenyl}propanoic acid], the negative-log EC50 (pEC50) was 7.00 to 8.00.
As for `CO/N=C(\COc1ccc(COc2ccc(CCC(=O)O)c(F)c2)cc1)c1ccc(OC)cc1` [Compound 40, 3-{2-Fluoro-4-[(4-{[(2Z)-2-(methoxyimino)-2-(4-methoxyphenyl)ethyl]oxy}benzyl)oxy]phenyl}propanoic acid], the pEC50 was greater than 8.00.
With `CO/N=C(\COc1ccc(COc2ccc(CCC(=O)O)c(-c3cc(C)on3)c2)cc1)c1ccccc1` [Compound 65, 3-{4-[(4-{[(2Z)-2-(Methoxyimino)-2-phenylethyl]oxy}benzyl)oxy]-2-(5-methyl-1,2-oxazol-3-yl)phenyl}propanoic acid], the negative logarithm of the EC50 (pEC50) is less than 7.00.
For the molecule `CO/N=C(\COc1ccc(COc2ccc(CCC(=O)O)cc2)cn1)c1ccccc1` [Compound 20, 3-{4-[(6-{[(2Z)-2-(Methoxyimino)-2-phenylethyl]oxy}pyridin-3-yl)methoxy]phenyl}propanoic acid], the pEC50 is less than 7.00.
